We go through 36 compounds from patent US8329755B2, “Methods for treating retroviral infections” (Roche Palo Alto LLC, priority 2004, dated 2012).

The structures appear in SMILES notation.

As usually defined, the melting point is the temperature, or range, at which the solid turns liquid. Consider `N#Cc1cc(Cl)cc(Oc2c(Cl)ccc(CC(=O)Nc3ccc(S(=O)(=O)NC(=O)CO)cc3Cl)c2F)c1.[Na]`, for which the melting point lay within 178 to 179.5 °C.

For `Cc1cc(S(N)(=O)=O)ccc1NC(=O)Cc1ccc(C)c(Oc2cc(Cl)ccc2Br)c1` [Compound I-31, 2-[3-(2-Bromo-5-chloro-phenoxy)-4-methyl-phenyl]-N-(2-methyl-4-sulfamoyl-phenyl)-acetamide], the melting point fell in the range of 200.5 to 203.5 °C.

As to `CCc1ccc(CC(=O)Nc2ccc(S(N)(=O)=O)cc2C)c(F)c1Oc1cc(C#N)cc(C(F)F)c1` [Compound I-180, 2-[3-(3-Cyano-5-difluoromethyl-phenoxy)-4-ethyl-2-fluoro-phenyl]-N-(2-methyl-4-sulfamoyl-phenyl)-acetamide], the melting point is 237.6 to 238.4 °C.

`Cc1ccncc1NC(=O)Cc1ccc(C)c(Oc2cc(Cl)cc(C#N)c2)c1` [Compound I-224, 2-[3-(3-Chloro-5-cyano-phenoxy)-4-methyl-phenyl]-N-(4-methyl-pyridin-3-yl)-acetamide] had a melting point of 158.6 to 159.1 °C.

The compound `Cc1cc(OC[C@@H](O)CO)ccc1NC(=O)Cc1ccc(C)c(Oc2cc(Cl)cc(C#N)c2)c1` [Compound I-150, 2-[3-(3-Chloro-5-cyano-phenoxy)-4-methyl-phenyl]-N-[4-((S)-2,3-dihydroxy-propoxy)-2-methyl-phenyl]-acetamide] had a melting point of 137.5 to 138.4 °C.

`Cc1cc(S(N)(=O)=O)ccc1NC(=O)Cc1cc(Oc2cccc(C#N)c2)c2occc2c1` [Compound I-145, 2-[7-(3-Cyano-phenoxy)-benzofuran-5-yl]-N-(2-methyl-4-sulfamoyl-phenyl)-acetamide] came in with a melting point of 218.9 to 220 °C.

In the case of `Cc1cc(CC(=O)Nc2ccc(S(N)(=O)=O)cc2C)cc(Oc2cc(C#N)ccc2Cl)c1` [Compound I-147, 2-[3-(2-Chloro-5-cyano-phenoxy)-5-methyl-phenyl]-N-(2-methyl-4-sulfamoyl-phenyl)-acetamide], the melting point lay in the range of 200.3 to 201.1 °C.

Take `Cc1cc(S(=O)(=O)NC(=O)c2cccnc2)ccc1NC(=O)Cc1ccc(Cl)c(Oc2cc(Cl)cc(C#N)c2)c1F.Cl`: the melting point fell in the range of 261.8 to 263.6 °C.

`CC(C)CCC(=O)NS(=O)(=O)c1ccc(NC(=O)Cc2ccc(Cl)c(Oc3cc(Cl)cc(C#N)c3)c2F)c(Cl)c1.[Na]` gave a melting point of 195.6 to 197 °C.

`Cc1cc(S(N)(=O)=O)ccc1NC(=O)Cc1ccc(Cl)c(Oc2cc(C#N)cc(C#CCN(C)C)c2)c1F` [Compound I-187, 2-{4-Chloro-3-[3-cyano-5-(3-dimethylamino-prop-1-ynyl)-phenoxy]-2-fluoro-phenyl}-N-(2-methyl-4-sulfamoyl-phenyl)-acetamide] yielded a melting point of 156.2 to 158.2 °C.

The compound `Cl.N#Cc1cc(Cl)cc(Oc2c(Cl)ccc(CC(=O)Nc3ccc(S(=O)(=O)NC(=O)CN4CCOCC4)cc3Cl)c2F)c1` returned a melting point of 223.3 to 225 °C.

Compound `Cc1cc(CC(=O)Nc2ccc(S(N)(=O)=O)cc2)cc(C(=O)c2ccccc2Cl)c1` [Compound I-263, 2-[3-(2-Chloro-benzoyl)-5-methyl-phenyl]-N-(4-sulfamoyl-phenyl)-acetamide] yielded a melting point of 165 to 167 °C.

`CCc1ccc(CC(=O)Nc2ccc(S(N)(=O)=O)cc2)cc1Oc1cc(Cl)cc(C#N)c1` [Compound I-45, 2-[3-(3-Chloro-5-cyano-phenoxy)-4-ethyl-phenyl]-N-(4-sulfamoyl-phenyl)-acetamide]: the melting point is 170.7 to 172.4 °C.

`Cc1cc(S(=O)(=O)CCC#N)ccc1NC(=O)Cc1ccc(C)c(Oc2cc(Cl)cc(C#N)c2)c1` [Compound I-137, 2-[3-(3-Chloro-5-cyano-phenoxy)-4-methyl-phenyl]-N-[4-(2-cyano-ethanesulfonyl)-2-methyl-phenyl]-acetamide] showed a melting point of 186.1 to 188 °C.

`Cc1cc(S(N)(=O)=O)ccc1NC(=O)Cc1ccc(Cl)c(Oc2cc(C#N)cc(C#CCO)c2)c1F` [Compound I-186, 2-{4-Chloro-3-[3-cyano-5-(3-hydroxy-prop-1-ynyl)-phenoxy]-2-fluoro-phenyl}-N-(2-methyl-4-sulfamoyl-phenyl)-acetamide] yielded a melting point of 170.1 to 173.2 °C.

The compound `Cc1cc(S(=O)(=O)CCC(=O)O)ccc1NC(=O)Cc1ccc(C)c(Oc2cc(Cl)cc(C#N)c2)c1` [Compound I-125, 3-(4-{2-[3-(3-Chloro-5-cyano-phenoxy)-4-methyl-phenyl]-acetylamino}-3-methyl-benzenesulfonyl)-propionic acid] registered a melting point of 74.3 to 76.5 °C.

In the case of `CC(C)CC(=O)NS(=O)(=O)c1ccc(NC(=O)Cc2ccc(Cl)c(Oc3cc(Cl)cc(C#N)c3)c2F)c(Cl)c1.[Na]`, the melting point fell in the range of 159.3 to 163.4 °C.

Compound `CCc1cc(CC(=O)Nc2ccc(S(N)(=O)=O)cc2C)cc(Oc2cc(C#N)ccc2Cl)c1` [Compound I-106, 2-[3-(2-Chloro-5-cyano-phenoxy)-5-ethyl-phenyl]-N-(2-methyl-4-sulfamoyl-phenyl)-acetamide] returned a melting point of 231.6 to 233.1 °C.

`CCc1ccc(CC(=O)Nc2ccc(S(N)(=O)=O)cc2)cc1Oc1cc(C#N)cc(C#N)c1Cl` [Compound I-52, 2-[3-(2-Chloro-3,5-dicyano-phenoxy)-4-ethyl-phenyl]-N-(4-sulfamoyl-phenyl)-acetamide] displayed a melting point of 119.7 to 123.3 °C.

Regarding `Cc1cc(S(=O)(=O)N2CCSCC2)ccc1NC(=O)Cc1ccc(C)c(Oc2cc(Cl)cc(C#N)c2)c1` [Compound I-117, 2-[3-(3-Chloro-5-cyano-phenoxy)-4-methyl-phenyl]-N-[2-methyl-4-(thiomorpholine-4-sulfonyl)-phenyl]-acetamide], the melting point lay in the range of 151.9 to 155.3 °C.

As for `N#Cc1cc(Cl)cc(Oc2c(Cl)ccc(CC(=O)Nc3ccc(S(N)(=O)=O)cc3Cl)c2F)c1` [Compound I-100, 2-[4-Chloro-3-(3-chloro-5-cyano-phenoxy)-2-fluoro-phenyl]-N-(2-chloro-4-sulfamoyl-phenyl)-acetamide], the melting point is 234.4 to 234.9 °C.

Regarding `Cc1cc(S(N)(=O)=O)ccc1NC(=O)Cc1ccc(Br)c(Oc2cc(C#N)cc(C(F)F)c2)c1F` [Compound I-169, 2-[4-Bromo-3-(3-cyano-5-difluoromethyl-phenoxy)-2-fluoro-phenyl]-N-(2-methyl-4-sulfamoyl-phenyl)-acetamide], the melting point lay in the range of 223.9 to 225 °C.

Take `Cc1cc(S(=O)(=O)NC(=O)[C@@H](N)C(C)C)ccc1NC(=O)Cc1ccc(Cl)c(Oc2cc(Cl)cc(C#N)c2)c1F.Cl`: the melting point is 169 to 180.3 °C.

Compound `COc1cc(CC(=O)Nc2ccc(S(N)(=O)=O)cc2C)cc(Oc2cc(Cl)cc(C#N)c2)c1` [Compound I-133, 2-[3-(3-Chloro-5-cyano-phenoxy)-5-methoxy-phenyl]-N-(2-methyl-4-sulfamoyl-phenyl)-acetamide] yielded a melting point of 169.9 to 171.1 °C.

Consider `CCc1ccc(CC(=O)Nc2ccccc2Cl)cc1Oc1cc(Cl)cc(Br)c1` [Compound I-24, 2-[3-(3-Bromo-5-chloro-phenoxy)-4-ethyl-phenyl]-N-(2-chloro-phenyl)-acetamide], for which the melting point lay in the range of 119.9 to 122.2 °C.

Compound `Cc1cc(S(=O)(=O)NCC(C)O)ccc1NC(=O)Cc1ccc(C)c(Oc2cc(Cl)cc(C#N)c2)c1` (stereo not drawn) [Compound I-129, 2-[3-(3-Chloro-5-cyano-phenoxy)-4-methyl-phenyl]-N-[4-(2-hydroxy-propylsulfamoyl)-2-methyl-phenyl]-acetamide] registered a melting point of 172.2 to 173.4 °C.

In the case of `CCN(CC)CC(=O)NS(=O)(=O)c1ccc(NC(=O)Cc2ccc(Cl)c(Oc3cc(Cl)cc(C#N)c3)c2F)c(Cl)c1.Cl`, the melting point was 195.3 to 197.2 °C.

Turning to `NS(=O)(=O)c1ccc(NC(=O)Cc2ccc(Cl)c(C(=O)c3cc(Cl)ccc3Cl)c2)c(Cl)c1` [Compound I-253, 2-[4-Chloro-3-(2,5-dichloro-benzoyl)-phenyl]-N-(2-chloro-4-sulfamoyl-phenyl)-acetamide], the melting point lay within 197 to 199.6 °C.

`O=C(Cc1ccc(Cl)c(C(=O)c2cc(Cl)cc(Cl)c2)c1)Nc1ccccc1Cl` [Compound I-247, 2-[4-Chloro-3-(3,5-dichloro-benzoyl)-phenyl]-N-(2-chloro-phenyl)-acetamide] displayed a melting point of 197.2 to 198.1 °C.

With `Cc1cc(N2CC[S+]([O-])CC2)ccc1NC(=O)Cc1ccc(C)c(Oc2cc(Cl)cc(C#N)c2)c1` [Compound I-160, 2-[3-(3-Chloro-5-cyano-phenoxy)-4-methyl-phenyl]-N-[2-methyl-4-(1-oxo-1λ^4-thiomorpholin-4-yl)-phenyl]-acetamide], the melting point was in the range of 181.3 to 182.1 °C.

For `Cc1cc(C(=O)CN2CCOCC2)ccc1NC(=O)Cc1ccc(C)c(Oc2cc(Cl)cc(C#N)c2)c1.O=C(O)C(F)(F)F`, the melting point lay within 110.3 to 110.5 °C.

Turning to `CCc1ccc(CC(=O)Nc2ccc(S(N)(=O)=O)cc2Cl)cc1Oc1cc(C#N)cc(C(F)F)c1` [Compound I-140, N-(2-Chloro-4-sulfamoyl-phenyl)-2-[3-(3-cyano-5-difluoromethyl-phenoxy)-4-ethyl-phenyl]-acetamide], the melting point fell in the range of 191.8 to 192.5 °C.

In turn, `CCc1ccc(CC(=O)Nc2ccccc2Cl)cc1Oc1cc(Br)cc(Br)c1Cl` [Compound I-38, N-(2-Chloro-phenyl)-2-[3-(3,5-dibromo-2-chloro-phenoxy)-4-ethyl-phenyl]-acetamide] had a melting point of 155.5 to 155.8 °C.

The compound `COc1ccc(NC(=O)Cc2ccc(C)c(Oc3cc(Cl)cc(C#N)c3)c2)c(C)n1` [Compound I-229, 2-[3-(3-Chloro-5-cyano-phenoxy)-4-methyl-phenyl]-N-(6-methoxy-2-methyl-pyridin-3-yl)-acetamide] displayed a melting point of 168.3 to 170.4 °C.

`CCc1ccc(CC(=O)Nc2ccc(S(N)(=O)=O)cc2)cc1Oc1cc(Br)cc(F)c1Cl` [Compound I-39, 2-[3-(5-Bromo-2-chloro-3-fluoro-phenoxy)-4-ethyl-phenyl]-N-(4-sulfamoyl-phenyl)-acetamide] displayed a melting point of 209.9 to 211.1 °C.

Take `O=C(Cc1ccc(Cl)c(C(=O)c2cc(Cl)ccc2Cl)c1)Nc1ccccc1Cl` [Compound I-248, 2-[4-Chloro-3-(2,5-dichloro-benzoyl)-phenyl]-N-(2-chloro-phenyl)-acetamide]: the melting point was 121 to 123.5 °C.
